{
  "source": "paper PMC5506005",
  "about": "“A novel protein kinase inhibitor IMB-YH-8 with anti-tuberculosis activity” (Scientific Reports, 2017)",
  "system": "clinical isolates of M. tuberculosis",
  "experiment": "microbe, parasite or virus in culture",
  "assay_type": "cell-based",
  "conditions": "Mycobacterium tuberculosis",
  "note": "Where two headings read alike, the source gives them in different places.",
  "data": [
    {"smiles": "COC(=O)/C=C/C(=O)c1ccc(OC)cc1", "note": "[IMB-YH-8]", "values": [
      {"measurement": "MIC", "setting": "clinical isolate 3303, resistant to INH, STR", "result": 0.5, "unit": "µg/mL"},
      {"measurement": "MIC", "setting": "clinical isolate 4201, resistant to RIF", "result": 0.25, "unit": "µg/mL"},
      {"measurement": "MIC", "setting": "clinical isolate 5112, resistant to INH, RIF, STR, EMB", "result": 0.25, "unit": "µg/mL"},
      {"measurement": "MIC", "setting": "clinical isolate 5116, resistant to INH, RIF", "result": 0.25, "unit": "µg/mL"},
      {"measurement": "MIC", "setting": "clinical isolate 5120, resistant to INH, STR, EMB", "result": 0.5, "unit": "µg/mL"},
      {"measurement": "MIC", "setting": "clinical isolate 6133, resistant to INH, RIF", "result": 0.25, "unit": "µg/mL"},
      {"measurement": "MIC", "setting": "clinical isolate 7153, resistant to INH, RIF", "result": 1, "unit": "µg/mL"},
      {"measurement": "MIC", "setting": "clinical isolate 11277, resistant to INH, RIF, STR", "result": 0.5, "unit": "µg/mL"},
      {"measurement": "MIC", "setting": "clinical isolate 12179, resistant to INH, RIF", "result": 0.25, "unit": "µg/mL"},
      {"measurement": "MIC", "setting": "clinical isolate 12251, resistant to INH, RIF", "result": 0.5, "unit": "µg/mL"},
      {"measurement": "MIC", "setting": "clinical isolate 16559, resistant to STR, OFX", "result": 0.5, "unit": "µg/mL"},
      {"measurement": "MIC", "setting": "clinical isolate 20161, resistant to INH, RIF", "result": 0.5, "unit": "µg/mL"},
      {"measurement": "MIC", "setting": "clinical isolate 23120, resistant to INH, RIF, STR", "result": 0.25, "unit": "µg/mL"},
      {"measurement": "MIC", "setting": "clinical isolate 23443, resistant to RIF", "result": 0.5, "unit": "µg/mL"},
      {"measurement": "MIC", "setting": "read-out: MICs for drug-resistant isolates", "result": "0.25 to 1", "unit": "µg/mL"}
    ]}
  ]
}
